Test results reported in patent US20150065470A1, “Steroid Sulfatase Inhibitor Regimen for the Treatment of Endometriosis” (priority 2012, published 2015).
Several values for one entry are separate records, joined by “and”; a condition that tells them apart may be missing. Identical values can stand only once.

Assays:
[1] = tested on: E2 (serum estradiol); assay: Serum hormonal profile incl. estradiol concentrations, Example 1; type: in vivo, human
Protocol: (§1) Pharmacodynamic properties were investigated by assessment of the STS activity in PBMCs and by measurement of the serum hormonal profile comprising the ratio of E1-S to E1 and DHEA-S to DHEA. […] Hormone profiles were analysed using commercially available ELISA or RIA kits.

[2] = tested on: STS; assay: E1-S to E1 and DHEA-S to DHEA ratios, Example 1; type: in vivo, human; conditions: multiple doses 0.25, 1, 4 mg weekly x4
Protocol: as §1

[3] = Safety, tolerability and ovarian cycle parameters, Example 1
Protocol: Treatment was started within 72 hours after the beginning of menstrual bleeding.
Ovarian and endometrium transvaginal ultrasounds throughout the study (Part A and B) and an endometrial biopsy (Part B only) were performed.

[4] = biological target: T1, STS activity in PBMCs (Homo sapiens, UniProt P08842); assay: STS activity in PBMCs, Example 2 (LC-MS/MS); type: in vivo; conditions: E2MATE 4 mg weekly and/or NETA 10 mg daily for 4 weeks
T1 construct: Pharmacodynamic properties were investigated by assessment of the STS activity in PBMCs; endogenous in cells; host or cells: peripheral blood mononuclear cells (PBMCs) of dosed women
T1 sequence (P08842 22-583): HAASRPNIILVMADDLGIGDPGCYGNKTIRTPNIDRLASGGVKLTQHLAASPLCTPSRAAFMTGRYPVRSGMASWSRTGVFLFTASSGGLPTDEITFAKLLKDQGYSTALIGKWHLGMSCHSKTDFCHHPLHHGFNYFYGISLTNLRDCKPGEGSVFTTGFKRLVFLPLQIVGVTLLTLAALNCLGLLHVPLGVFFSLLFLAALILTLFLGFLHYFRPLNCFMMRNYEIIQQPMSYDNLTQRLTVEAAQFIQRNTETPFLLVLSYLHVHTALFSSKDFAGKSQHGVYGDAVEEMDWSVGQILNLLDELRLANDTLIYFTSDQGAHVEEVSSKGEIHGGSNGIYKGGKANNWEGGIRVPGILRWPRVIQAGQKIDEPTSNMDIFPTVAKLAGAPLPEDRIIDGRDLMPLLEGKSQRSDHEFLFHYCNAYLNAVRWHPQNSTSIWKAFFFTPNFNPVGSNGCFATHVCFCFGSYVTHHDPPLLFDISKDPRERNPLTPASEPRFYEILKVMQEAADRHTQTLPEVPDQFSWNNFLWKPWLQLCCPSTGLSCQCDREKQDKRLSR
Protocol: (§2) STS activity was determined by spiking specimens with labelled E1-S and by measuring its conversion to E1 per gram protein under standardized incubation conditions using LC-MS/MS. Protein concentration was evaluated with a validated colorimetric assay (Bradford method).

[5] = biological target: T2, Steroid Sulfatase in endometrium (Homo sapiens, UniProt P08842); assay: STS activity in endometrium, Example 2 (LC-MS/MS); type: in vivo
T2 construct: from tissue; host or cells: endometrium (biopsies) of dosed women
T2 sequence (P08842 22-583): T1 sequence (P08842 22-583)
Protocol: as §2

[6] = tested on: E2 and P4; T and D4A; assay: Hormone profiles (E2, P4, T, D4A), Example 2; type: in vivo, human
Protocol: Hormone profiles were determined as described in Example 1.

[7] = Safety, tolerability and post-treatment menstruation cycles, Example 2
From the text: Menstruation cycle length was not influenced by the treatment. […] Sizes of right and left ovary differed slightly for each subject, but no clinically relevant changes were identified by the gynaecologists.

[8] = tested on: endometriosis-like lesion; conditions: daily oral dose of 0.5 or 1 mg/kg for 21 days, cited from earlier work
[9] = biological target: T3, STS activity in the uterus or in induced lesions (Mus musculus, UniProt P50427); conditions: highest dose (1 mg/kg daily oral, 21 days); cited from earlier work
T3 construct: host or cells: mouse uterus or induced endometriosis-like lesions
T3 sequence (P50427 23-624): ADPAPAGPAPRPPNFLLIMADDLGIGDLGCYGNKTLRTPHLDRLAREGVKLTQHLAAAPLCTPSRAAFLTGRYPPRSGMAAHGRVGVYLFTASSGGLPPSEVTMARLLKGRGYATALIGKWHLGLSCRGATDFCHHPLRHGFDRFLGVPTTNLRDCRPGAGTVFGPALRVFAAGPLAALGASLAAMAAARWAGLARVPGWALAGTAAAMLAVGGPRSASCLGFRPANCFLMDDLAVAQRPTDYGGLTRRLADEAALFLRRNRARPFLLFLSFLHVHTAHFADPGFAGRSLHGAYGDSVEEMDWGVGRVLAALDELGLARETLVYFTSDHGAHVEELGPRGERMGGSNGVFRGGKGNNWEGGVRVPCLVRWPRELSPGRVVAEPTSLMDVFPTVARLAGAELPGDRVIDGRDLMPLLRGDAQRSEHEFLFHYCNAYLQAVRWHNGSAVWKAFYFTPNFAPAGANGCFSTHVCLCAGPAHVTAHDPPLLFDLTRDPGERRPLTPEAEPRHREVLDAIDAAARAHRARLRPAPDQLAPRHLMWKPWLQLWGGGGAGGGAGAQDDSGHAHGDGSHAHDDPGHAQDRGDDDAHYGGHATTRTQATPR

[10] = biological target: T4, STS (Homo sapiens, UniProt P08842); conditions: cited from earlier work
T4 sequence (P08842 22-583): T1 sequence (P08842 22-583)

[11] = multiple dose 0.25 mg weekly x4, Cycle 1
[12] = multiple dose 0.25 mg weekly x4, Cycle 2
[13] = multiple dose 0.25 mg weekly x4, Cycle 3
[14] = multiple dose 1 mg weekly x4, Cycle 1
[15] = multiple dose 1 mg weekly x4, Cycle 2
[16] = multiple dose 1 mg weekly x4, Cycle 3
[17] = multiple dose 4 mg weekly x4, Cycle 1
[18] = multiple dose 4 mg weekly x4, Cycle 2
[19] = multiple dose 4 mg weekly x4, Cycle 3

## C[C@]12CC[C@@H]3c4ccc(OS(N)(=O)=O)cc4CC[C@H]3[C@@H]1CC[C@@H]2O [E2MATE, Estradiol-3-o-sulfamate]
[1]; [11]
  Avg estradiol concentration, Mean: 135.7 ng/L
  Max estradiol concentration, Mean: 305.3 ng/L
[1]; [12]
  Avg estradiol concentration, Mean: 116.0 ng/L
  Max estradiol concentration, Mean: 260.5 ng/L
[1]; [13]
  Avg estradiol concentration, Mean: 107.1 ng/L
  Max estradiol concentration, Mean: 185.4 ng/L
[1]; [14]
  Avg estradiol concentration, Mean: 126.0 ng/L
  Max estradiol concentration, Mean: 278.6 ng/L
[1]; [15]
  Avg estradiol concentration, Mean: 109.0 ng/L
  Max estradiol concentration, Mean: 193.4 ng/L
[1]; [16]
  Avg estradiol concentration, Mean: 110.0 ng/L
  Max estradiol concentration, Mean: 221.6 ng/L
[1]; [17]
  Avg estradiol concentration, Mean: 134.8 ng/L
  Max estradiol concentration, Mean: 317.8 ng/L
[1]; [18]
  Avg estradiol concentration, Mean: 100.9 ng/L
  Max estradiol concentration, Mean: 207.7 ng/L
[1]; [19]
  Avg estradiol concentration, Mean: 94.9 ng/L
  Max estradiol concentration, Mean: 180.9 ng/L
[1]; multiple dose administration
  differences in mean concentration-time profiles of E2, P4, LH, FSH, T and D4A compared to placebo: No clinically relevant dose-related differences
[1]; single dose 0.25 mg E2MATE
  Avg (weighted average) estradiol concentration, Mean: 141.2 ng/L
  Max estradiol concentration, Mean: 335.1 ng/L
[1]; single dose 1 mg E2MATE
  Avg (weighted average) estradiol concentration, Mean: 131.0 ng/L
  Max estradiol concentration, Mean: 318.1 ng/L
[1]; single dose 4 mg E2MATE
  Avg (weighted average) estradiol concentration, Mean: 113.8 ng/L
  Max estradiol concentration, Mean: 275.3 ng/L
[1]; single dose 8 mg E2MATE
  Avg (weighted average) estradiol concentration, Mean: 109.3 ng/L
  Max estradiol concentration, Mean: 221.1 ng/L
[1]; single dose administration
  effects on mean concentration-time profiles of E2, P4, LH, FSH, T and D4A compared to placebo: No clinically relevant effects
[2]
  turn-over of E1-S to E1: dose-dependent decreased turn-over
[3]; in vivo
  cycle length: not affected
  endometrial thickness assessed by TVUS, between treatment groups: no clinically relevant differences
  number of measurable follicles / subjects with follicles >10 mm: No clinically relevant effects
[3]; multiple doses of 0.25, 1 mg and 4 mg weekly x4
  tolerability: well tolerated
[3]; single doses of 0.25 mg, 1 mg, 4 mg and 8 mg
  tolerability: well tolerated
[4]; Day 4
  mean percentage inhibition of STS activity in PBMCs: 90%
[4]; Day 113
  percentage inhibition of STS activity in PBMCs: 37%
[4]
  average inhibition of STS activity in PBMCs: 82.6%
  mean maximal inhibition of STS activity in PBMCs: 94.7%
[5]; E2MATE 4 mg weekly and/or NETA 10 mg daily for 4 weeks
  AVG [%] average inhibition of Steroid Sulfatase in endometrium (average effect over time (AUC)): 66.6 (2.7) % and 66.60%
[5]; end of treatment, between Day 25 and Day 29
  STS inhibition [%] in endometrium: 91% and 90.66%
[5]; read-out: Emax [%] maximal inhibition of Steroid Sulfatase in endometrium
  Emax: 91%
[5]; third biopsy day, 1 month after the end of the treatment (approximately 50 days after dosing)
  STS inhibition [%] in endometrium, After treatment: 88% and 87.50%
[6]; first cycle up to Day 29, normal increase on Day 43
  mean concentration-time profiles in E2 and P4: Normal mean concentration-time profiles
[6]; multiple dose administration
  mean concentration-time profiles for T and D4A: No relevant differences
[7]; in vivo
  ovarian size: no apparent effect
[7]; multiple doses for 4 weeks, healthy pre-menopausal female subjects
  tolerability: well tolerated
[8]; end of treatment
  lesion weight and size: decreased
[8]
  histology of the uterus (indicative of some estrogenic activity): some stromal oedema was observed
  number of lesions: without a reduction
[9]
  STS activity inhibition in the uterus or in induced lesions: ≤ 36%
[10]
  STS inhibition: active STS inhibitors
